Source: ChEMBL document CHEMBL4373724, “An overview of recent progress in siderophore-antibiotic conjugates” (2019)
In brackets after ≈: the same amount, converted by molar mass.

Legend:
Format in all cases: functional
Klebsiella pneumoniae [1] = test: Antimicrobial activity against Klebsiella pneumoniae ATCC 8303 under iron-sufficient condition by CLSI protocol based broth microdilution method
Pseudomonas aeruginosa [2] = test: Antimicrobial activity against Pseudomonas aeruginosa under iron-sufficient condition by CLSI protocol based broth microdilution method
Klebsiella pneumoniae [3] = test: Antimicrobial activity against Klebsiella pneumoniae X68 under iron-sufficient condition by CLSI protocol based broth microdilution method
Pseudomonas aeruginosa [4] = test: Antimicrobial activity against Pseudomonas aeruginosa PAO1 under iron-deficient condition by CLSI protocol based broth microdilution method
Pseudomonas aeruginosa [5] = test: Antimicrobial activity against Pseudomonas aeruginosa PAO1 under iron-sufficient condition by CLSI protocol based broth microdilution method
Klebsiella pneumoniae [6] = test: Antimicrobial activity against Klebsiella pneumoniae X68 under iron-deficient condition by CLSI protocol based broth microdilution method
Escherichia coli [7] = test: Antimicrobial activity against Escherichia coli ATCC 25922 under iron-sufficient condition by CLSI protocol based broth microdilution method
Pseudomonas aeruginosa [8] = test: Antimicrobial activity against Pseudomonas aeruginosa PA6 under iron-deficient condition by CLSI protocol based broth microdilution method
Pseudomonas aeruginosa [9] = test: Antimicrobial activity against Pseudomonas aeruginosa PA6 under iron-sufficient condition by CLSI protocol based broth microdilution method
Klebsiella pneumoniae [10] = test: Antimicrobial activity against Klebsiella pneumoniae ATCC 8303 under iron-deficient condition by CLSI protocol based broth microdilution method
Pseudomonas aeruginosa [11] = test: Antimicrobial activity against Pseudomonas aeruginosa under iron-deficient condition by CLSI protocol based broth microdilution method
Pseudomonas aeruginosa [12] = test: Antimicrobial activity against Pseudomonas aeruginosa 61 under iron-deficient condition by CLSI protocol based broth microdilution method
Escherichia coli [13] = test: Antimicrobial activity against Escherichia coli ATCC 25922 under iron-deficient condition by CLSI protocol based broth microdilution method
Pseudomonas aeruginosa [14] = test: Antimicrobial activity against Pseudomonas aeruginosa KW799 under iron-deficient condition by CLSI protocol based broth microdilution method
Pseudomonas aeruginosa [15] = test: Antimicrobial activity against Pseudomonas aeruginosa PA4 under iron-sufficient condition by CLSI protocol based broth microdilution method
Pseudomonas aeruginosa [16] = test: Antimicrobial activity against Pseudomonas aeruginosa PA4 under iron-deficient condition by CLSI protocol based broth microdilution method
Pseudomonas aeruginosa [17] = test: Antimicrobial activity against Pseudomonas aeruginosa KW799 under iron-sufficient condition by CLSI protocol based broth microdilution method
Pseudomonas aeruginosa [18] = test: Antimicrobial activity against Pseudomonas aeruginosa 61 under iron-sufficient condition by CLSI protocol based broth microdilution method
Pseudomonas aeruginosa [19] = test: Antimicrobial activity against Pseudomonas aeruginosa ATCC 27853 after 18 hrs by CLSI protocol based broth microdilution method; conditions: ATCC 27853, 18 h
Klebsiella pneumoniae [20] = test: Antimicrobial activity against Klebsiella pneumoniae 700603 after 18 hrs by CLSI protocol based broth microdilution method; conditions: Klebsiella pneumoniae, 700603, 18 h
Klebsiella aerogenes = test: Antimicrobial activity against Enterobacter aerogenes ATCC 35029 after 18 hrs by CLSI protocol based broth microdilution method; conditions: ATCC 35029, 18 h
Enterococcus faecium = test: Antimicrobial activity against Enterococcus faecium NCTC after 18 hrs by CLSI protocol based broth microdilution method
Escherichia coli [21] = test: Antimicrobial activity against Escherichia coli ATCC 25922 after 18 hrs by CLSI protocol based broth microdilution method; conditions: ATCC 25922, 18 h
Acinetobacter baumannii = test: Antimicrobial activity against Acinetobacter baumannii ATCC 17961 after 18 hrs by CLSI protocol based broth microdilution method; conditions: ATCC 17961, 18 h
Staphylococcus aureus [22] = test: Antimicrobial activity against Staphylococcus aureus SG 511 after 18 hrs by CLSI protocol based broth microdilution method; conditions: SG 511, 18 h
[23] = tested on: Mycobacterium tuberculosis; test: Antitubercular activity against Mycobacterium tuberculosis H37Rv
[24] = tested on: Mycolicibacterium smegmatis; test: Antitubercular activity against Mycobacterium smegmatis
Pseudomonas aeruginosa [25] = test: Antimicrobial activity against Pseudomonas aeruginosa X621 under iron-sufficient condition by broth microdilution method
Escherichia coli [26] = test: Antimicrobial activity against Escherichia coli EC14 under iron-sufficient condition by broth microdilution method
Micrococcus luteus [27] = test: Antimicrobial activity against Micrococcus luteus under iron-deficient condition by broth microdilution method
Pseudomonas aeruginosa [28] = test: Antimicrobial activity against Pseudomonas aeruginosa X621 under iron-deficient condition by broth microdilution method
Escherichia coli [29] = test: Antimicrobial activity against Escherichia coli EC14 under iron-deficient condition by broth microdilution method
Staphylococcus aureus [30] = test: Antimicrobial activity against Staphylococcus aureus X1.1 under iron-deficient condition by broth microdilution method
Micrococcus luteus [31] = test: Antimicrobial activity against Micrococcus luteus under iron-sufficient condition by broth microdilution method
Staphylococcus aureus [32] = test: Antimicrobial activity against Staphylococcus aureus X1.1 under iron-sufficient condition by broth microdilution method
Pseudomonas aeruginosa [33] = test: Antimicrobial activity against Pseudomonas aeruginosa X620 under iron-deficient condition by broth microdilution method
Escherichia coli [34] = test: Antimicrobial activity against Escherichia coli X580 under iron-deficient condition by broth microdilution method
Escherichia coli [35] = test: Antimicrobial activity against Escherichia coli X580 under iron-sufficient condition by broth microdilution method
Pseudomonas aeruginosa [36] = test: Antimicrobial activity against Pseudomonas aeruginosa X620 under iron-sufficient condition by broth microdilution method

Row | SMILES | MIC90 (Klebsiella pneumoniae [1]) | MIC90 (Pseudomonas aeruginosa [2]) | MIC90 (Klebsiella pneumoniae [3]) | MIC90 (Pseudomonas aeruginosa [4]) | MIC90 (Pseudomonas aeruginosa [5]) | MIC90 (Klebsiella pneumoniae [6]) | MIC90 (Escherichia coli [7]) | MIC90 (Pseudomonas aeruginosa [8]) | MIC90 (Pseudomonas aeruginosa [9]) | MIC90 (Klebsiella pneumoniae [10]) | MIC90 (Pseudomonas aeruginosa [11]) | MIC90 (Pseudomonas aeruginosa [12]) | MIC90 (Escherichia coli [13]) | MIC90 (Pseudomonas aeruginosa [14]) | MIC90 (Pseudomonas aeruginosa [15]) | MIC90 (Pseudomonas aeruginosa [16]) | MIC90 (Pseudomonas aeruginosa [17]) | MIC90 (Pseudomonas aeruginosa [18]) | also measured
1 | CC1(C)S[C@@H]2[C@H](NC(=O)[C@H](NC(=O)CCC(=O)NC(CCCNC(=O)c3cccc(O)c3O)(CCCNC(=O)c3cccc(O)c3O)CCCNC(=O)c3cccc(O)c3O)c3ccccc3)C(=O)N2[C@H]1C(=O)O | > 200 µM | 33 µM (≈ 34.4 µg/mL) | > 200 µM | 0.39 µM (≈ 0.406 µg/mL) | 50 µM (≈ 52.1 µg/mL) | > 100 µM | 150 µM (≈ 156 µg/mL) | > 200 µM | > 200 µM | > 100 µM | 0.05 µM (≈ 0.0521 µg/mL) | 0.067 µM (≈ 0.0698 µg/mL) | 1.56 µM (≈ 1.63 µg/mL) | 0.05 to 0.067 µM (≈ 0.0521 to 0.0698 µg/mL) | 25 µM (≈ 26.1 µg/mL) | 0.39 µM (≈ 0.406 µg/mL) | 12.5 to 33 µM (≈ 13 to 34.4 µg/mL) | 12.5 µM (≈ 13 µg/mL) | 
2 | O=C(CCC(=O)N(O)CCCCCO)NCCCCCN(O)C(=O)CCC(=O)NCCCCCN(O)C(=O)CCC(=O)N1CCN(c2cc3c(cc2F)c(=O)c(C(=O)O)cn3C2CC2)CC1 |  |  |  |  |  |  |  |  |  |  |  |  |  |  |  |  |  |  | MIC (Pseudomonas aeruginosa [19]): > 128 µM; MIC (Klebsiella pneumoniae [20]): > 128 µM; MIC (Klebsiella aerogenes): 64 µM (≈ 59.7 µg/mL); MIC (Enterococcus faecium): 64 µM (≈ 59.7 µg/mL); MIC (Escherichia coli [21]): > 128 µM; MIC (Acinetobacter baumannii): ≥ 128 µM; MIC (Staphylococcus aureus [22]): 1 µM (≈ 0.933 µg/mL)
3 | CC1(C)S[C@@H]2[C@H](NC(=O)[C@H](NC(=O)CCC(=O)NC(CCCNC(=O)c3cccc(O)c3O)(CCCNC(=O)c3cccc(O)c3O)CCCNC(=O)c3cccc(O)c3O)c3ccc(O)cc3)C(=O)N2[C@H]1C(=O)O | > 200 µM | 25 µM (≈ 26.5 µg/mL) | > 200 µM | 0.39 µM (≈ 0.413 µg/mL) | 50 µM (≈ 52.9 µg/mL) | > 100 µM | 100 µM (≈ 106 µg/mL) | > 200 µM | > 200 µM | > 100 µM | 0.05 µM (≈ 0.0529 µg/mL) | 0.083 µM (≈ 0.0878 µg/mL) | 6.25 µM (≈ 6.61 µg/mL) | 0.05 to 0.083 µM (≈ 0.0529 to 0.0878 µg/mL) | 25 µM (≈ 26.5 µg/mL) | 0.21 µM (≈ 0.222 µg/mL) | 12.5 to 25 µM (≈ 13.2 to 26.5 µg/mL) | 12.5 µM (≈ 13.2 µg/mL) | 
4 | CCCCCCCCCCCCCCCCC(=O)N(O)CCCC[C@H](NC(=O)[C@@H]1COC(c2ccccc2O)=N1)C(=O)NC[C@H](NC(=O)CCCO[C@H]1O[C@@H]2O[C@@]3(C)CC[C@H]4[C@H](C)CC[C@@H]([C@H]1C)[C@@]24OO3)C(=O)N[C@H]1CCCCN(O)C1=O |  |  |  |  |  |  |  |  |  |  |  |  |  |  |  |  |  |  | MIC [23]: 0.39 µg/mL (≈ 0.334 µM); MIC [24]: > 5 µg/mL
5 | CC1(C)S[C@@H]2[C@H](NC(=O)[C@H](N)c3ccc(O)cc3)C(=O)N2[C@H]1C(=O)O [AMOXICILLIN] | 100 µM (≈ 36.5 µg/mL) | > 200 µM | 100 µM (≈ 36.5 µg/mL) | > 100 µM | > 200 µM | > 100 µM | 4.17 µM (≈ 1.52 µg/mL) | > 200 µM | > 200 µM | > 100 µM | > 200 µM | 0.39 µM (≈ 0.143 µg/mL) | 4.17 µM (≈ 1.52 µg/mL) | 0.39 to 200 µM (≈ 0.143 to 73.1 µg/mL) | > 200 µM | > 100 µM | 0.46 to 200 µM (≈ 0.168 to 73.1 µg/mL) | 0.46 µM (≈ 0.168 µg/mL) | 
6 | CC1(C)S[C@@H]2[C@H](NC(=O)[C@H](N)c3ccccc3)C(=O)N2[C@H]1C(=O)O [AMPICILLIN] | > 200 µM | > 200 µM | > 200 µM | > 100 µM | > 200 µM | > 100 µM | 16.7 µM (≈ 5.84 µg/mL) | > 200 µM | > 200 µM | > 100 µM | > 200 µM | 0.78 µM (≈ 0.273 µg/mL) | 12.5 µM (≈ 4.37 µg/mL) | 0.78 to 200 µM (≈ 0.273 to 69.9 µg/mL) | > 200 µM | > 100 µM | 0.52 to 200 µM (≈ 0.182 to 69.9 µg/mL) | 0.52 µM (≈ 0.182 µg/mL) | 
7 | N[C@@H](C(=O)N[C@@H]1C(=O)N2C(C(=O)O)=C(Cl)CC[C@H]12)c1ccccc1 [LORACARBEF ANHYDROUS] |  |  |  |  |  |  |  |  |  |  |  |  |  |  |  |  |  |  | MIC (Pseudomonas aeruginosa [19]): > 128 µM; MIC (Klebsiella pneumoniae [20]): 128 µM (≈ 44.8 µg/mL); MIC (Klebsiella aerogenes): > 128 µM; MIC (Enterococcus faecium): 32 µM (≈ 11.2 µg/mL); MIC (Escherichia coli [21]): 2 µM (≈ 0.7 µg/mL); MIC (Acinetobacter baumannii): > 128 µM; MIC (Staphylococcus aureus [22]): 1 µM (≈ 0.35 µg/mL)
8 | CN[C@H](CC(C)C)C(=O)N[C@H]1C(=O)N[C@@H](CC(N)=O)C(=O)N[C@H]2C(=O)N[C@H]3C(=O)N[C@H](C(=O)N[C@H](C(=O)O)c4cc(O)cc(O)c4-c4cc3ccc4O)[C@H](O)c3ccc(c(Cl)c3)Oc3cc2cc(c3O[C@@H]2O[C@H](CO)[C@@H](O)[C@H](O)[C@H]2O[C@H]2C[C@](C)(N)[C@H](O)[C@H](C)O2)Oc2ccc(cc2Cl)[C@H]1O [VANCOMYCIN] |  |  |  |  |  |  |  |  |  |  |  |  |  |  |  |  |  |  | MIC (Pseudomonas aeruginosa [25]): > 128 µM; MIC (Escherichia coli [26]): > 128 µM; MIC (Micrococcus luteus [27]): 1 to 4 µM (≈ 1.45 to 5.8 µg/mL); MIC (Pseudomonas aeruginosa [28]): > 128 µM; MIC (Escherichia coli [29]): > 128 µM; MIC (Staphylococcus aureus [30]): 0.5 to 4 µM (≈ 0.725 to 5.8 µg/mL); MIC (Micrococcus luteus [31]): 2 to 4 µM (≈ 2.9 to 5.8 µg/mL); MIC (Staphylococcus aureus [32]): 1 to 4 µM (≈ 1.45 to 5.8 µg/mL); MIC (Pseudomonas aeruginosa [33]): > 128 µM; MIC (Escherichia coli [34]): 32 µM (≈ 46.4 µg/mL); MIC (Escherichia coli [35]): 32 to 64 µM (≈ 46.4 to 92.8 µg/mL); MIC (Pseudomonas aeruginosa [36]): > 128 µM
